Literature values as cited in PubChem BioAssay AID1259409 (Chemical Carcinogenesis Research Information System (CCRIS), 2018).

Test system: rodent chemically induced tumor inhibition, incidence and multiplicity
Test: CCRIS tumor inhibitor studies

[Cl][Cd][Cl]
tumour outcome (control, treated, inhibition, significance) (Carcinogen: DIETHYLNITROSAMINE, 55-18-5, Dose [Inhibitor]: 0, 500 PPM IN DRINKING WATER BEGINNING 2 WK POST CARCINOGEN DOSE AND CONTINUING FOR DURATION OF STUDY (STUDY DURATION: 5, Route [Inhibitor]: ORAL, Species: MOUSE, Strain/Sex: B6C3F1/MALE, Target Tissue: Type of Lesion: LIVER: TUMOR, Dose [Carcinogen]: 90 MG/KG IN TRICAPRYLIN (5 MG/ML) ONCE, Promoter: NONE USED): 13/45 (29%), 3/42 (7%), 76%, p<0.05 | tumour outcome (control, treated, inhibition, significance) (Carcinogen: DIETHYLNITROSAMINE, 55-18-5, Dose [Inhibitor]: 0, 500 PPM IN DRINKING WATER BEGINNING 2 WK POST CARCINOGEN DOSE AND CONTINUING FOR DURATION OF STUDY (STUDY DURATION: 5, Route [Inhibitor]: ORAL, Species: MOUSE, Strain/Sex: B6C3F1/MALE, Target Tissue: Type of Lesion: LUNG: TUMOR, Dose [Carcinogen]: 90 MG/KG IN TRICAPRYLIN (5 MG/ML) ONCE, Promoter: NONE USED): 15/45 (33%), 11/42 (26%), 21%, not calculated | tumour outcome (control, treated, inhibition, significance) (Carcinogen: DIETHYLNITROSAMINE, 55-18-5, Dose [Inhibitor]: 0, 1000 PPM IN DRINKING WATER BEGINNING 2 WK POST CARCINOGEN DOSE AND CONTINUING FOR DURATION OF STUDY (STUDY DURATION:, Route [Inhibitor]: ORAL, Species: MOUSE, Strain/Sex: B6C3F1/MALE, Target Tissue: Type of Lesion: LIVER: TUMOR, Dose [Carcinogen]: 90 MG/KG IN TRICAPRYLIN (5 MG/ML) ONCE, Promoter: NONE USED): 13/45 (29%), 0/47 (0%), 100%, p<0.05 | tumour outcome (control, treated, inhibition, significance) (Carcinogen: DIETHYLNITROSAMINE, 55-18-5, Dose [Inhibitor]: 0, 1000 PPM IN DRINKING WATER BEGINNING 2 WK POST CARCINOGEN DOSE AND CONTINUING FOR DURATION OF STUDY (STUDY DURATION:, Route [Inhibitor]: ORAL, Species: MOUSE, Strain/Sex: B6C3F1/MALE, Target Tissue: Type of Lesion: LUNG: TUMOR, Dose [Carcinogen]: 90 MG/KG IN TRICAPRYLIN (5 MG/ML) ONCE, Promoter: NONE USED): 15/45 (33%), 1/47 (2%), 94%, p<0.05

[O]=[V](=[O])[OH]
tumour outcome (control, treated, inhibition, significance) (Carcinogen: 7,12-DIMETHYLBENZ[A]ANTHRACENE (57-97-6), Dose [Inhibitor]: DRINKING WATER, Route [Inhibitor]: 4.27 µM/L DIRECTLY AFTER CARCINOGEN UNTIL 34 WKS, Species: RAT, Strain/Sex: SPRAGUE-DAWLEY/FEMALE, Target Tissue: Type of Lesion: MAMMARY: CARCINOMA, Dose [Carcinogen]: 0.5 MG/100 G BW AT 50 D OF AGE ONCE (STUDY DURATION: 35 WKS)): 100%, 60%, 40%, p<0.05 | outcome (Carcinogen: 7,12-Dimethylbenzanthracene, 57-97-6, Dose [Inhibitor]: 0.5 ppm in drinking water beginning immediately after carcinogen up to 35 wks study duration, Route [Inhibitor]: Oral, Species: Rat, Strain/Sex: Sprague-Dawley/Female, Target Tissue: Type of Lesion: Mammary gland: Adenocarcinoma, Dose [Carcinogen]: 0.5 mg/100 g bw iv once, study duration 35 wk, Promoter: None): 9/10 (90%), 6/10 (60%), p<0.05 | outcome (Carcinogen: INTRAVENOUS; Dose [Inhibitor]: 7,12-DIMETHYLBENZ[A]ANTHRACENE; 57-97-6; Route [Inhibitor]: 0; 0.5 PPM IN DRINKING WATER FOR 35 WK BEGINNING IMMEDIATELY POST CARCINOGEN TREATMENT, STUDY DURATION: 35 WK), Species: RAT, Strain/Sex: SPRAGUE-DAWLEY/FEMALE, Target Tissue: Type of Lesion: 9/10 (90%), 6/10 (60%), 33%, P<0.05): 8.11, 5.33, 34%, p<0.01 | tumour outcome (control, treated, inhibition, significance) (Carcinogen: N,N-Diethylnitrosamine;(55-18-5, Dose [Inhibitor]: 0.5 ppm as vanadium starting 4 wk prior to DEN and stopped at week 4, Route [Inhibitor]: Oral (drinking water), Species: Rats, Strain/Sex: Sprague-Dawley/Male, Target Tissue: Type of Lesion: Liver: Preneoplastic nodules, Dose [Carcinogen]: Single 200 mg/kg dose in 0.9% saline at wk 4 of experiment, Promoter: Phenobarbital): 15/15 (100%), 4/12 (33.33%), 66.67%

CC(C)(C)c1cc(Cc2cc(C(C)(C)C)c(O)c(C(C)(C)C)c2)cc(C(C)(C)C)c1O
tumour outcome (control, treated, inhibition, significance) (Carcinogen: BENZO[A]PYRENE, 50-32-8, Dose [Inhibitor]: 0.03 MMOL/G OF DIET DAILY STARTING 7 D BEFORE AND CONTINUING THROUGH 3 D AFTER CARCINOGEN TREATMENT FOLLOWED BY OBSERVAT, Route [Inhibitor]: ORAL, Species: MOUSE, Strain/Sex: ICR/FEMALE, Target Tissue: Type of Lesion: FORESTOMACH: NEOPLASM, Dose [Carcinogen]: 1 MG IN 0.2 ML CORN OIL 2/WK FOR 4 WK, Promoter: NONE USED): 94%, 100%, -6%, not significant

Clc1ccc(-c2cc(Cl)c(Cl)c(Cl)c2)cc1Cl
tumour outcome (control, treated, inhibition, significance) (Carcinogen: 7,12-DIMETHYLBENZ[A]ANTHRACENE, 57-97-6, Dose [Inhibitor]: 0, 2.5 NG/KG BW ADMINISTERED INTRAGASTRICALLY TO MOTHERS ON DAYS 13 TO 19 POST-CONCEPTION (STUDY DURATION: 178 D), Route [Inhibitor]: IN UTERO, ORAL, Species: RAT, Strain/Sex: SD/FEMALE, Target Tissue: Type of Lesion: MAMMARY GLAND: TUMOR, Dose [Carcinogen]: 20 MG/KG BW ADMINISTERED TO 50-DAY OLD OFFSPRING): 93%, 93%, 0%, not significant | tumour outcome (control, treated, inhibition, significance) (Carcinogen: 7,12-DIMETHYLBENZ[A]ANTHRACENE, 57-97-6, Dose [Inhibitor]: 0, 7.5 UG/KG BW ADMINISTERED INTRAGASTRICALLY TO MOTHERS ON DAYS 13 TO 19 POST-CONCEPTION (STUDY DURATION: 178 D), Route [Inhibitor]: IN UTERO, ORAL, Species: RAT, Strain/Sex: SD/FEMALE, Target Tissue: Type of Lesion: MAMMARY GLAND: TUMOR, Dose [Carcinogen]: 20 MG/KG BW ADMINISTERED TO 50-DAY OLD OFFSPRING): 93%, 78%, 17%, p<0.05 | tumour outcome (control, treated, inhibition, significance) (Carcinogen: 7,12-DIMETHYLBENZ[A]ANTHRACENE, 57-97-6, Dose [Inhibitor]: 0, 250 NG/KG BW ADMINISTERED INTRAGASTRICALLY TO MOTHERS ON DAYS 13 TO 19 POST-CONCEPTION (STUDY DURATION: 178 D), Route [Inhibitor]: IN UTERO, ORAL, Species: RAT, Strain/Sex: SD/FEMALE, Target Tissue: Type of Lesion: MAMMARY GLAND: TUMOR, Dose [Carcinogen]: 20 MG/KG BW ADMINISTERED TO 50-DAY OLD OFFSPRING): 93%, 96%, -3%, not significant
